According to patent publication US20120208809A1, “9H-PYRROLO[2,3-B: 5,4-C'] DIPYRIDINE AZACARBOLINE DERIVATIVES, PREPARATION THEREOF, AND THERAPEUTIC USE THEREOF” (SANOFI, priority 2009, published 2012):

Assays:
Pim-1 = target: T1, Pim-1 (Homo sapiens, UniProt P11309); assay: TR-FRET assay of Pim kinase activity (phosphorylation of Bad Ser112), Pim-1; format: biochemical; conditions: ATP 40 μM, read-out: IC50 Pim1
T1 construct: full-length human recombinant His6-labelled Pim-1, Pim-2 or Pim-3 protein; His6; made in house
T1 sequence (P11309 whole entry): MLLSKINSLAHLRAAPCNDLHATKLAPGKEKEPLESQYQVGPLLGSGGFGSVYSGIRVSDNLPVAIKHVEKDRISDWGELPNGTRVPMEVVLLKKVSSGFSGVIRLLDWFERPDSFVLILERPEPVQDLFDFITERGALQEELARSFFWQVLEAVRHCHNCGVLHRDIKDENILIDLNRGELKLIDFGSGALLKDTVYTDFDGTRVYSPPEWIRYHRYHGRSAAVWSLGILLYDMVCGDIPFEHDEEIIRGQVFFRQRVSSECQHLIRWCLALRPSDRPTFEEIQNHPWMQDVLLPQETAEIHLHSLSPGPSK
Procedure, shortened: (§1)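 Full-length His6-tagged human Pim-1, -2 or -3 phosphorylate full-length His6-Bad at 40 μM ATP; phospho-Ser112 detected by TR-FRET (Eu anti-phosphoBad, APC anti-His6), 665/615 nm ratio. Compounds run at 10 concentrations in duplicate, typically top 30 μM; IC50 from 4-parameter logistic fit.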

Pim-2 = target: T2, Pim-2 (Homo sapiens, UniProt Q9P1W9); assay: TR-FRET assay of Pim kinase activity (phosphorylation of Bad Ser112), Pim-2; format: biochemical; conditions: ATP 40 μM, read-out: IC50 Pim2
T2 construct: full-length human recombinant His6-labelled Pim-1, Pim-2 or Pim-3 protein; His6; made in house
T2 sequence (Q9P1W9 whole entry): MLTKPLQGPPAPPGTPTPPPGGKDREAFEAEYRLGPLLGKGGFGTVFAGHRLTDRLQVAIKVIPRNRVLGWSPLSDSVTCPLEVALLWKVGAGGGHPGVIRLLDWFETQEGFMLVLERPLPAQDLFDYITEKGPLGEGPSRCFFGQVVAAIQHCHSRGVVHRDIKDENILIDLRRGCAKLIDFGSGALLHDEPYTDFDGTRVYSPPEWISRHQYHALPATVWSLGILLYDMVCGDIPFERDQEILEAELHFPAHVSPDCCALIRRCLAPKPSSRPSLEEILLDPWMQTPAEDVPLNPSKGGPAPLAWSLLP
Procedure, shortened: as §1

Pim-3 = target: T3, Pim-3 (Homo sapiens, UniProt Q86V86); assay: TR-FRET assay of Pim kinase activity (phosphorylation of Bad Ser112), Pim-3; format: biochemical; conditions: ATP 40 μM, read-out: IC50 Pim3
T3 construct: full-length human recombinant His6-labelled Pim-1, Pim-2 or Pim-3 protein; His6; made in house
Procedure, shortened: as §1

CDK1 = CDK1 (Homo sapiens, UniProt P06493); assay: Biochemical results, IC50 CDK1
CDK1, sequence (P06493 whole entry, species assumed): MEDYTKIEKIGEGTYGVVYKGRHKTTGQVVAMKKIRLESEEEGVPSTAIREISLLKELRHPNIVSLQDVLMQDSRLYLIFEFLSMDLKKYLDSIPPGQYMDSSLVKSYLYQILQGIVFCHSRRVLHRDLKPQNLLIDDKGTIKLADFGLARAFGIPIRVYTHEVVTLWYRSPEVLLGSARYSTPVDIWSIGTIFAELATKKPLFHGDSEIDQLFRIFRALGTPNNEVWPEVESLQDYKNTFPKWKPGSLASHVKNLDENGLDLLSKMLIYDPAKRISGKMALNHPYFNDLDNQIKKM
CDK1, sequence (P14635 whole entry partner, species assumed): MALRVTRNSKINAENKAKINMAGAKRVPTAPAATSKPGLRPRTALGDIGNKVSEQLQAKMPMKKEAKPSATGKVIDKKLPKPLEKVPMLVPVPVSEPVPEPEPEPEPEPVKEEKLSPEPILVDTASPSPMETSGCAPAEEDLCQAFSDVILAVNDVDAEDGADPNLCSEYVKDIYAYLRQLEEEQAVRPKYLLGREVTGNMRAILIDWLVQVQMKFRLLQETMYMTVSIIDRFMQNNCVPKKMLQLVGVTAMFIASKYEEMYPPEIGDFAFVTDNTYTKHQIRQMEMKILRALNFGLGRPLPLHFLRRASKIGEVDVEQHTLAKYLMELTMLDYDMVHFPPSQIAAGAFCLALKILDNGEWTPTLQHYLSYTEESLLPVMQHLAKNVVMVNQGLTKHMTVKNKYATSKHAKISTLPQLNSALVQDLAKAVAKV

PLK1 = PLK1 (Homo sapiens, UniProt P53350); assay: Biochemical results, IC50 PLK1
PLK1, sequence (P53350 whole entry, species assumed): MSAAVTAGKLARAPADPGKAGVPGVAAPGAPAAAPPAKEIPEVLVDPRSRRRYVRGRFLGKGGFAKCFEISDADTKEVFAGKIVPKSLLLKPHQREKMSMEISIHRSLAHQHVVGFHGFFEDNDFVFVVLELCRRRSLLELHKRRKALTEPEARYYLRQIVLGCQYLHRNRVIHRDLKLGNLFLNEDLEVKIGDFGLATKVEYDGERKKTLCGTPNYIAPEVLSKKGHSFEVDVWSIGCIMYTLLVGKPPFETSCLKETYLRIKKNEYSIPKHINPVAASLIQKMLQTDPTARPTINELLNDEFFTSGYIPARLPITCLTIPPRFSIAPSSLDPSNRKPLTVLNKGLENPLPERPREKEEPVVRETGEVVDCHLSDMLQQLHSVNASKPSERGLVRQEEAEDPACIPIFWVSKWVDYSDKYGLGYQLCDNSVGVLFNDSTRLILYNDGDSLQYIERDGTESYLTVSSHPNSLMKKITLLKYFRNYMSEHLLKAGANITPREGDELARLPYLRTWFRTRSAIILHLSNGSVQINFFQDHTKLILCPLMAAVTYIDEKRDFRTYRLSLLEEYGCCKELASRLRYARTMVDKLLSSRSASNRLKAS

EOL-1 = assay: Cell viability assay (CellTiter-Blue), EOL-1; format: cell-based; conditions: Homo sapiens, EOL1, read-out: EC50 EOL-1 μM (eosinophilic leukaemia), EOL-1 cells, read-out: EC50 EOL-1 μM (lymphoma);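 also: EOL-1 is an acute myeloid eosinophilic leukaemia line not a lymphoma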
Text: (§2) The representative compounds of the invention are also screened as regards their effects on cell proliferation and viability, using a variety of tumoral cell lines of human source, representative of different pathological indications. These cell lines include:
Models of Haematological Cancers: • TF-1 (acute myelogenic leukaemia; AML M6 at the time of diagnosis); • K G-1 (AML; erythroleukaemia evolving into AML); • KG-1a (AML; subclone derived from immature KG-1); • EOL-1 (AML: eosinophilic leukaemia); • PL-21 (AML; M3); • ML-2 (AML; T-NHL evolving into T-ALL evolving into AML M4); • HL-60 (AML, M3); • Kasumi-1 (AML); • GDM-1 (AML); • K-562 (CML—chronic myelogenic leukaemia; blastic crisis); • JURL-MK1 (CML; blastic crisis); • DND-41 (T-ALL—T-cell acute lymphoblastic leukaemia); • Jurkat (T-ALL); NALM-6 (B-ALL B-cell ALL); • CEM (ALL; lymphosarcoma evolving into ALL); • Jeko-1 (B-NHL—B-cell non-Hodgkin lymphoma; lymphoma with coat cells derived from a large-cell variant in leukaemic transformation); • WSU-DLCL2 (B-NHL; diffuse lymphoma with large B cells); • RL (B-NHL; undifferentiated diffuse); • OCl-Ly10 (B-NHL); • DoHH-2 (B-NHL); • RPMI-8226 (MM—multiple myelomas); • JVM-2 (B-CLL—B-cell chronic lymphocytic leukaemia); and • JVM-3 (B-CLL).
(§3) In order to measure the viability, the tumour cells are incubated in 96-well or 384-well format for 48, 72 or 96 hours, preferably 72 hours, with a compound of the invention at dilutions of a factor 3, with, in general, nine doses in total, the highest dose being equal to 10 μM or 30 μM. The cell viability is evaluated by adding CellTiter-Blue® (Promega, Madison, Wis., United States) for 4 hours and endpoint readings are taken using a SpectraMax Genmini EM plate reader (Molecular Devices, Sunnyvale, Calif., United States). The CellTiter-Blue® cell viability assay measures the ability of the cells in culture to reduce resazurin to resorufin, the intensity of the fluorescence signal being directly proportional to the number of live cells. The EC50 represents the concentration of compound that leads to a 50% reduction of the viability/proliferative expansion of the cells.

MV4-11 = assay: Cell viability assay (CellTiter-Blue), MV4-11; format: cell-based; conditions: Homo sapiens, read-out: EC50 MV4-11 μM (acute myeloid leukemia), MV4-11 cells, read-out: EC50 MV4-11 μM (myeloma)
Protocol: as §2, §3

phosphoBAD (DND-41) = assay: Level of phosphorylation of Bad by ELISA, DND-41 cell line; format: cell-based; conditions: Homo sapiens, DND41, DND-41 cells, 3 hours at 37° C.
Protocol: The activity of the molecules is evaluated on the JEKO or DND-41 cell line by measuring the level of phosphorylation of Bad and the total Bad content, via the ELISA technique.
The JEKO or DND-41 cells are resuspended at a concentration of 500 000 cells per ml. The cells are then diluted in RPMI-1640 medium containing 20% foetal calf serum. 225 μl of cells are placed in a plate. Serial dilutions of the molecules are then performed (8 points, three-fold dilution, range started at 10 mM). Each dilution point is then diluted to 1/100 in medium. Next, 25 μl of each of the concentrations are added to the cells and then incubated for 3 hours at 37° C.
100 μl of the cells are transferred into a plate treated with poly-D-Lysine. The plate is then incubated for 5-10 minutes at 37° C. and then centrifuged for 5 minutes at 1500 rpm. A volume of 100 μl of 8% fixing solution (solution of formaldehyde in PBS buffer) is added to each of the wells. After covering with a self-adhesive film and a lid, the plate is incubated for 20 minutes at room temperature and then stored at 4° C. overnight.
Next, the liquid is removed and two successive washes are performed with washing buffer. 100 μl of quenching buffer are added, followed by incubating for 15 minutes at room temperature. After washing, 100 μl of […] at room temperature. After washing, 50 μl of primary antibody diluted to 1/250 for pBAD (Cell Signaling Cat#5284) and to 1/500 for Bad (MBL Cat#591) are added to each of the plates. Each plate is incubated for 2 hours at room temperature. After two washes, 50 μl of secondary antibody (diluted to 1/16) are added to the pBAD plate (tebu-bio ref; FE-021) and 50 μl of the HRP-conjugated IgG secondary antibody (Santa Cruz Cat #SC-2004; diluted to 1/1000) are added to the Bad plate. Incubation for 1 hour at room temperature is performed. Four washes with the washing solution are performed, followed by three washes with PBS. Finally, 100 μl of the developing solution are added, followed by incubation for 10 minutes. Finally, 100 μl of the quenching solution are added, before reading at 450 nm.

| Compound | IC50 (Pim-1) | IC50 (Pim-2) | IC50 (Pim-3) | IC50 (CDK1) | IC50 (PLK1) | EC50 (EOL-1) | EC50 (MV4-11) | IC50 (phosphoBAD (DND-41)) |
| --- | --- | --- | --- | --- | --- | --- | --- | --- |
| NCCNC(=O)c1ccc(-c2c(F)cnc3[nH]c4cnc(-c5cccnc5)cc4c23)cc1 [Example 28, N-(2-aminoethyl)-4-[3-fluoro-6-(pyridin-3-yl)-9H-pyrrolo[2,3-b:5,4-c′]dipyridin-4-yl]benzamide] | < 100 nM | < 100 nM | < 100 nM | 100 to 1000 nM | 100 to 1000 nM | 100 to 1000 nM | 100 to 1000 nM | 1000 to 5000 nM |
| CN(C)CCNC(=O)c1ccc(-c2c(F)cnc3[nH]c4cnc(-c5cnn(C)c5)cc4c23)cc1 [Example 37, N-[3-(dimethylamino)ethyl]-4-[3-fluoro-6-(1-methyl-1H-pyrazol-4-yl)-9H-pyrrolo[2,3-b:5,4-c′]dipyridin-4-yl]benzamide] | < 100 nM | < 100 nM | < 100 nM | 100 to 1000 nM | 1000 to 5000 nM | – | – | 1000 to 5000 nM |
| CN(C)CC(C)(C)CNC(=O)c1ccc(-c2c(F)cnc3[nH]c4cnc(-c5cccnc5)cc4c23)cc1 [Example 52, N-[3-(dimethylamino)-2,2-dimethylpropyl]-4-[3-fluoro-6-(pyridin-3-yl)-9H-pyrrolo[2,3-b:5,4-c′]dipyridin-4-yl]benzamide] | < 100 nM | 100 to 1000 nM | < 100 nM | 1000 to 5000 nM | 100 to 1000 nM | < 100 nM | 100 to 1000 nM | 100 to 1000 nM |
| CN(C)CCCN(C)C(=O)c1ccc(-c2c(F)cnc3[nH]c4cnc(-c5cccnc5)cc4c23)cc1 [Example 59, N-[3-(dimethylamino)propyl]-4-[3-fluoro-6-(pyridin-3-yl)-9H-pyrrolo[2,3-b:5,4-c′]dipyridin-4-yl]-N-methylbenzamide] | < 100 nM | 100 to 1000 nM | < 100 nM | 100 to 1000 nM | 1000 to 5000 nM | 100 to 1000 nM | 100 to 1000 nM | 1000 to 5000 nM |
| CN1CCC(CCNC(=O)c2ccc(-c3c(F)cnc4[nH]c5cnc(-c6cccnc6)cc5c34)cc2)CC1 [Example 61, 4-[3-fluoro-6-(pyridin-3-yl)-9H-pyrrolo[2,3-b:5,4-c′]dipyridin-4-yl]-N-[2-(1-methylpiperidin-4-yl)ethyl]benzamide] | < 100 nM | 100 to 1000 nM | < 100 nM | 1000 to 5000 nM | 1000 to 5000 nM | 100 to 1000 nM | 100 to 1000 nM | 1000 to 5000 nM |
| CC(CNC(=O)c1ccc(-c2c(F)cnc3[nH]c4cnc(-c5cccnc5)cc4c23)cc1)N1CCCC1 (stereo not shown) [Example 63, 4-[3-fluoro-6-(pyridin-3-yl)-9H-pyrrolo[2,3-b:5,4-c′]dipyridin-4-yl]-N-[2-(pyrrolidin-1-yl)propyl]benzamide] | < 100 nM | 100 to 1000 nM | < 100 nM | 1000 to 5000 nM | 100 to 1000 nM | 100 to 1000 nM | 100 to 1000 nM | 100 to 1000 nM |
